In experiment [1] the target is GDP-bound HRAS wild-type protein (Homo sapiens, UniProt P01112). The experiment in a line: Binding to HRAS by surface plasmon resonance (SPR), Single Cycle Kinetics. To be noted: ratio of KD for GDP-bound HRAS wild-type protein to KD for KRAS, SPR. For orientation: In SPR one partner is held on a chip, and binding of the other changes the refractive index at the surface.

Experiment [2] deals with human lung cancer strain NCI-H441. The experiment in a line: cells. To be noted: NCI-H441, 96 h, read-out: NCI-H441 IC50 (nM), NCI-H441 cell proliferation, 4 days, CellTiter-Glo.
For experiment [3], the target named is GDP-bound NRAS wild-type protein (Homo sapiens, UniProt P01111). The experiment in a line: Binding to NRAS by surface plasmon resonance (SPR), Single Cycle Kinetics. To be noted: ratio of KD for GDP-bound NRAS wild-type protein to KD for KRAS, SPR.

Each structure is given as a SMILES string. Where a SMILES comes first, the peptide text is derived from it. Bridges are numbered along the chain shown (N, C = ends). [ ]: non-standard residue; d: D form. The star is where a group is joined. hPhe(3-Cl-4-CF3) = N[C@@H](CCc1ccc(C(F)(F)F)c(Cl)c1)C(=O)O; NPrPhe(4-CF3) = CCCN[C@@H](Cc1ccc(C(F)(F)F)cc1)C(=O)O; NMeGly(cPent) = CN[C@H](C(=O)O)C1CCCC1; NMeD = CN[C@@H](CC(=O)O)C(=O)O; NMeL = CN[C@@H](CC(C)C)C(=O)O; Morpholide = C1CN(*)CCO1; Ac5c = NC1(C(=O)O)CCCC1; Sar = CNCC(=O)O
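Throughout, for IC50: cell proliferation inhibition after four days measured by CellTiter-Glo.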

Sequence of GDP-bound NRAS wild-type protein (P01111 whole entry): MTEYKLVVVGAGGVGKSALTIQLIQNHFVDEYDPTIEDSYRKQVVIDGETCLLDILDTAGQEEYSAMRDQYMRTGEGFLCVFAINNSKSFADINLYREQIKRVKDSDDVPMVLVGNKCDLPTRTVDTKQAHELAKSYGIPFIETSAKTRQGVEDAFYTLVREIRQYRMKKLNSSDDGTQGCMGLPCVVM
Sequence of GDP-bound HRAS wild-type protein (P01112 whole entry): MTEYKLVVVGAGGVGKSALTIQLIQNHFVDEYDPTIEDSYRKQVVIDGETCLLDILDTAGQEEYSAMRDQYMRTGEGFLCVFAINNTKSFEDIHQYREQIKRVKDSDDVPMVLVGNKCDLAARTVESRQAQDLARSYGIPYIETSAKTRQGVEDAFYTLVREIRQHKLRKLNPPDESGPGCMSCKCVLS

For `CC[C@H](C)[C@@H]1NC(=O)[C@H](CC(C)C)N(C)C(=O)C[C@@H](C(=O)N(C)C)N(C)C(=O)[C@H](C2CCCC2)N(C)C(=O)C2(CCC2)NC(=O)[C@@H]2C[C@H](C)CN2C(=O)[C@H](CCc2ccc(C(F)(F)F)c(OC)c2)NC(=O)CN(C)C(=O)[C@H](Cc2ccc(C)cc2)N2CC/C=C\C[C@@H](C2=O)N(C)C(=O)CN(C)C1=O` [PP1865], the “HRAS/KRAS (KD ratio)” value in experiment [1] is “B (a compound having 3 or more and less than 10 is denoted as B)”. Besides, in experiment [2], the IC50 came to 36 nM. Besides, the “NRAS/KRAS (KD ratio)” value in experiment [3] is “A (a compound having 10 or more and less than 20 is denoted as A)”.
Turning to `CCC[C@H]1C(=O)N[C@@H]([C@@H](C)CC)C(=O)N(C)CC(=O)N(C)[C@H]2C/C=C\CCN(C2=O)[C@@H](Cc2ccc(C)cc2)C(=O)N(C)CC(=O)N[C@@H](CCc2ccc(C(F)(F)F)c(OC)c2)C(=O)N2C[C@@H](C)C[C@H]2C(=O)NC2(CCC2)C(=O)N(C)[C@@H](C2CCCC2)C(=O)N(C)[C@H](C(=O)N(C)CC)CC(=O)N1C` [PP1840], the “HRAS/KRAS (KD ratio)” value in experiment [1] is “B (a compound having 3 or more and less than 10 is denoted as B)”. The IC50 in experiment [2] is 26.8 nM. Besides, the “NRAS/KRAS (KD ratio)” value in experiment [3] is “A (a compound having 10 or more and less than 20 is denoted as A)”.
As to `CC[C@H](C)[C@@H]1NC(=O)[C@H](C2CC2)N(C)C(=O)C[C@@H](C(=O)N(C)CC)N(C)C(=O)[C@H](C2CCCC2)N(C)C(=O)C2(CC(C)(C)C2)NC(=O)[C@@H]2C[C@H](C)CN2C(=O)[C@H](CCc2cc(F)c(C(F)(F)F)c(F)c2)NC(=O)CN(C)C(=O)[C@H](Cc2ccc(C(F)(F)F)cc2)N2CC/C=C\C[C@@H](C2=O)N(C)C(=O)CN(C)C1=O` [PP1980], in experiment [1], the “HRAS/KRAS (KD ratio)” value is “B (a compound having 3 or more and less than 10 is denoted as B)”. Further, in experiment [2], the IC50 turned out to be 30.1 nM. In addition, the “NRAS/KRAS (KD ratio)” value in experiment [3] was “A (a compound having 10 or more and less than 20 is denoted as A)”.
With `CCC[C@H]1C(=O)N[C@@H]([C@@H](C)CC)C(=O)N(C)CC(=O)N(C)[C@H]2C/C=C\CCN(C2=O)[C@@H](Cc2ccc(C)cc2)C(=O)N(C)CC(=O)N[C@@H](CCc2ccc(C(F)(F)F)c(Cl)c2)C(=O)N2C[C@H](C)C[C@H]2C(=O)NC2(CCC2)C(=O)N(C)[C@@H](C2CCCC2)C(=O)N(C)[C@H](C(=O)N(C)CC)CC(=O)N1C` [PP1850], the IC50 in experiment [2] is 49.1 nM.
On the same count and under the same terms, in the case of `CCCN(C)C(=O)[C@@H]1CC(=O)N(C)[C@@H](CCOC)C(=O)N[C@@H]([C@@H](C)CC)C(=O)N(C)CC(=O)N(C)[C@H]2C/C=C\CCN(C2=O)[C@@H](Cc2ccc(C(F)(F)F)cc2)C(=O)N(C)CC(=O)N[C@@H](CCc2cc(F)c(C(F)(F)F)c(F)c2)C(=O)N2C[C@H](OCC)C[C@H]2C(=O)NC2(CC(C)(C)C2)C(=O)N(C)[C@@H](C2CCCC2)C(=O)N1C` [PP2033] it was 11.8 nM.
`CCCN(C)C(=O)[C@@H]1CC(=O)N(C)[C@@H](COCC)C(=O)N[C@@H]([C@@H](C)CC)C(=O)N(C)CC(=O)N(C)[C@H]2C/C=C\CCN(C2=O)[C@@H](Cc2ccc(C(F)(F)F)cc2)C(=O)N(C)CC(=O)N[C@@H](CCc2cc(F)c(C(F)(F)F)c(F)c2)C(=O)N2C[C@@H](C)C[C@H]2C(=O)NC2(CCC2)C(=O)N(C)[C@@H](C2CCCC2)C(=O)N1C` [PP2002]: in experiment [2], the IC50 worked out at 15.7 nM.
Same read-out and setting: then `CCCN1C(=O)CN(C)C(=O)CN(C)C(=O)[C@H]([C@@H](C)CC)NC(=O)[C@H](CC(C)C)N(C)C(=O)C[C@@H](C(=O)N2CCOCC2)N(C)C(=O)[C@H](C2CCCC2)N(C)C(=O)C2(CCCC2)NC(=O)[C@H](C)NC(=O)[C@H](CCc2ccc(C(F)(F)F)c(Cl)c2)NC(=O)CN(C)C(=O)[C@@H]1Cc1ccc(C(F)(F)F)cc1` [PP1914] ([NMeL]I[Sar][Sar][NPrPhe(4-CF3)][Sar][hPhe(3-Cl-4-CF3)]A[Ac5c][NMeGly(cPent)][NMeD]-Morpholide; lactam N-11), with 39.7 nM; and `CC[C@H](C)[C@@H]1NC(=O)[C@H](CC(F)F)N(C)C(=O)C[C@@H](C(=O)N(C)C)N(C)C(=O)[C@H](C2CCCC2)N(C)C(=O)C2(CC(C)(C)C2)NC(=O)[C@@H]2C[C@@H](C)CN2C(=O)[C@H](CCc2ccc(C(F)(F)F)c(OC)c2)NC(=O)CN(C)C(=O)[C@H](Cc2ccc(C)cc2)N2CC/C=C\C[C@@H](C2=O)N(C)C(=O)CN(C)C1=O` [PP1877], with 18.4 nM.

Values taken from US20240158446A1, “CYCLIC COMPOUND HAVING SELECTIVE INHIBITORY ACTION ON KRAS OVER HRAS AND NRAS” (CHUGAI SEIYAKU KABUSHIKI KAISHA, priority 2021, published 2024).
